Data taken from US20250368645A1, “BETA CARBOLINE ANALOGUES AS SELECTIVE AND BIASED KAPPA OPIOID RECEPTORS AGONISTS FOR TREATING VARIOUS ASSOCIATED PATHOPHYSIOLOGICAL CONDITIONS” (COUNCIL OF SCIENTIFIC AND INDUSTRIAL RESEARCH, priority 2022, published 2025).
pIC50: −log10 of the molar value. Each block holds one compound with its values, some of them ahead of it.

Columns and labels:
Format in all cases: cell-based
[1] = molecular target: DOR (Homo sapiens, UniProt P41143); assay: GloSensor assay at DOR; details: given as Log IC50 (negative values)
[2] = molecular target: human KOR (Homo sapiens, UniProt P41145); assay: GloSensor assay, Gi-mediated cAMP inhibition in HEK-293T cells transfected with human KOR; details: given as Log IC50 (negative values); agonist activity, inhibition of FSK-stimulated cAMP; read-out: GloSensor Assay (Log IC50) KOR (converted)
[3] = molecular target: MOR (Homo sapiens, UniProt P35372); assay: GloSensor assay at MOR; details: given as Log IC50 (negative values)
Chain of MOR (P35372 whole entry): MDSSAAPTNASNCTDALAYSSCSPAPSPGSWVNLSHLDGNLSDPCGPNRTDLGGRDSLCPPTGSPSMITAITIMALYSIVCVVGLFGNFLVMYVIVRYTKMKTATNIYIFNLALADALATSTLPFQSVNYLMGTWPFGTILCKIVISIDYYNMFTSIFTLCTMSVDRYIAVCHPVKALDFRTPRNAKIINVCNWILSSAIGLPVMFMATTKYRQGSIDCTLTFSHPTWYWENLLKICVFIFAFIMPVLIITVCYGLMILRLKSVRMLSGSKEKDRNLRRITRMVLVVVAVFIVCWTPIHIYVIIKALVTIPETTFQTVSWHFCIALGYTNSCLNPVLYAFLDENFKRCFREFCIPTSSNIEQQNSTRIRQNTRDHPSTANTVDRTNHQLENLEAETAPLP

Chain of human KOR (P41145 whole entry): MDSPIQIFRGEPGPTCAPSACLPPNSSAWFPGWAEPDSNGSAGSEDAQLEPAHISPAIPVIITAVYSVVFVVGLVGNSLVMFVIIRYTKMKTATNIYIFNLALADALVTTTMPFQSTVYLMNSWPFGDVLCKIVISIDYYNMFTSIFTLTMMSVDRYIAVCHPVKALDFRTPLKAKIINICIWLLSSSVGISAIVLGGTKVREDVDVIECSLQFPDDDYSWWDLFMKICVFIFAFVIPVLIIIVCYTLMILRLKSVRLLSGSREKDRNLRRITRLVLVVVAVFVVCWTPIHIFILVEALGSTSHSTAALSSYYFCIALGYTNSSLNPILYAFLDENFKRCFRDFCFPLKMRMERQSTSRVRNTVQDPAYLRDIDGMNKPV
Chain of DOR (P41143 whole entry): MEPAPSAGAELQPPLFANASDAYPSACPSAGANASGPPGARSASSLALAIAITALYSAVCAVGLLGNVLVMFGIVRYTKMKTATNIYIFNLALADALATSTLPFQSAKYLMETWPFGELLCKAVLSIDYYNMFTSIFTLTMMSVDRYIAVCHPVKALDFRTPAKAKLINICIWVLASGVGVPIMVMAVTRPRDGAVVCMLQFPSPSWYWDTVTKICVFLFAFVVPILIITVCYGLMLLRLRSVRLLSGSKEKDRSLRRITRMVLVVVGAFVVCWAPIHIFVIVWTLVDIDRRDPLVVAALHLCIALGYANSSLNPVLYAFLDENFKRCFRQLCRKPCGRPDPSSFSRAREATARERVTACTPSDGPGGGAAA

Structure (SMILES): FC(F)(F)c1ccc(Cn2c[n+]3ccc4c5ccccc5[nH]c4c3c2-c2ccc(Br)cc2)cc1 [9aad, 1-(4-Bromophenyl)-2-(4-(trifluoromethyl)benzyl)-2,11-dihydroimidazo[1′,5′:1,2]pyrido[3,4-b]indol-4-ium chloride]
- pIC50 [1]: < 5.00
- IC50 [2]: > 10 µM
- pIC50 [3]: < 5.00

Structure (SMILES): Brc1ccc2[nH]c3c(cc[n+]4cn(-c5ccccc5)c(-c5ccccc5Br)c34)c2c1 [8cca, 8-Bromo-1-(2-bromophenyl)-2-phenyl-2,11-dihydrolmidazo[1′,5′:1,2]pyrido[3,4-b]indol-4-ium chloride]
- pIC50 [1]: < 5.00
- IC50 [2]: > 10 µM
- pIC50 [3]: < 5.00

Structure (SMILES): Clc1ccc(-n2c[n+]3ccc4c5ccccc5[nH]c4c3c2-c2cccc(Cl)c2)cc1 [8afc, 1-(3-Chlorophenyl)-2-(4-chlorophenyl)-2,11-dihydrolmidazo[1′,5′:1,2]pyrido[3,4-b]indol-4-ium chloride]
- pIC50 [1]: < 5.00
- IC50 [2]: 0.316 µM
- pIC50 [3]: < 5.00

Structure (SMILES): FC(F)(F)Oc1ccc(Cn2c[n+]3ccc4c5ccccc5[nH]c4c3c2-c2ccc(Cl)cc2)cc1 [9abh, 1-(4-Chlorophenyl)-2-(4-(trifluoromethoxy)benzyl)-2,11-dihydroimidazo[1′,5′:1,2]pyrido[3,4-b]indol-4-ium chloride]
- pIC50 [1]: < 5.00
- IC50 [2]: > 10 µM
- pIC50 [3]: < 5.00

Structure (SMILES): Brc1cccc(-n2c[n+]3ccc4c5ccccc5[nH]c4c3c2-c2ccccc2)c1 [8aae, 2-(3-Bromophenyl)-1-phenyl-2,11-dihydrolmidazo[1′,5′:1,2]pyrido[3,4-b]indol-4-ium chloride]
- pIC50 [1]: < 5.00
- IC50 [2]: > 10 µM
- pIC50 [3]: < 5.00

Structure (SMILES): Cn1c2ccccc2c2cc[n+]3cn(-c4ccc(Cl)cc4)c(-c4ccc(Br)cc4)c3c21 [8dbc, 1-(4-Bromophenyl)-2-(4-chlorophenyl)-11-methyl-2,11 dihydroimidazo[1′,5′:1,2]pyrido[3,4-b]indol-4-iumchloride]
- pIC50 [1]: < 5.00
- IC50 [2]: > 10 µM
- pIC50 [3]: < 5.00

Structure (SMILES): Clc1ccc(-c2c3c4[nH]c5ccccc5c4c4ccccc4[n+]3cn2-c2ccc(Cl)cc2)cc1 [12dd, 1,2-Bis(4-chlorophenyl)-2,13-dihydroimidazo[1,5-a]indolo[2,3-c]quinolin-4-ium chloride]
- pIC50 [1]: < 5.00
- IC50 [2]: > 10 µM
- pIC50 [3]: < 5.00

Structure (SMILES): Fc1ccc(F)c(Cn2c[n+]3ccc4c5ccccc5[nH]c4c3c2-c2ccc(Br)cc2)c1 [9aaf]
- pIC50 [1]: < 5.00
- IC50 [2]: > 10 µM
- pIC50 [3]: < 5.00

Structure (SMILES): Fc1cccc(-n2c[n+]3ccc4c5ccccc5[nH]c4c3c2-c2ccccc2Br)c1 [8aci, 1-(2-Bromophenyl)-2-(3-fluorophenyl)-2,11-dihydroimidazo[1′,5′:1,2]pyrido[3,4-b]indol-4-ium]
- pIC50 [1]: < 5.00
- IC50 [2]: 0.0631 µM
- pIC50 [3]: < 5.00

Structure (SMILES): c1ccc(-n2c[n+]3ccc4c5ccccc5[nH]c4c3c2-c2cc3ccccc3o2)cc1 [8amd, 1-(Benzofuran-2-yl)-2-phenyl-2,11-dihydroimidazo[1′,5′:1,2]pyrido[3,4-b]indol-4-ium chloride]
- pIC50 [1]: < 5.00
- IC50 [2]: 0.0398 µM
- pIC50 [3]: < 5.00

Structure (SMILES): Clc1ccc(-c2c3c4[nH]c5ccccc5c4c4ccccc4[n+]3cn2-c2ccc(Br)cc2)cc1 [12db, 2(4-Bromophenyl-1-(4-chlorophenyl)-2,13-dihydroimidazo[1,5-a]indolo[2,3-c]quinolin-4-ium chloride]
- IC50 [2]: 0.251 µM

Structure (SMILES): CC(C)(C)c1ccc(Cn2c[n+]3ccc4c5ccccc5[nH]c4c3c2-c2ccc(Br)cc2)cc1 [9aac, 1-(4-Bromophenyl)-2-(4-(tert-butyl)benzyl)-2,11-dihydroimidazo[1′,5′:1,2]pyrido[3,4-b]indol-4-ium chloride]
- pIC50 [1]: < 5.00
- IC50 [2]: > 10 µM
- pIC50 [3]: < 5.00

Structure (SMILES): Cn1c2ccccc2c2cc[n+]3cn(-c4ccc(Cl)cc4)c(-c4ccc(Cl)cc4)c3c21 [8ddc, 1,2-Bis(4-chlorophenyl)-11-methyl-2,11-dihydroimidazo[1′,5′:1,2]pyrido[3,4-b]indol-4-iumchloride]
- pIC50 [1]: < 5.00
- IC50 [2]: > 10 µM
- pIC50 [3]: < 5.00

Structure (SMILES): Clc1ccc(-c2c3c4[nH]c5ccccc5c4cc[n+]3cn2-c2cccc(Br)c2)cc1 [8ade, 2-(3-Bromophenyl)-1-(4-chlorophenyl)-2,11-dihydroimidazo[1′,5′:1,2]pyrido[3,4-b]indol-4-ium chloride]
- pIC50 [1]: < 5.00
- IC50 [2]: > 10 µM
- pIC50 [3]: < 5.00

Structure (SMILES): c1ccc(-c2c3c4[nH]c5ccccc5c4cc[n+]3cn2-c2ccccc2)cc1 [8aaa, 1,2-Diphenyl-2,11-dihydroimidazo[1′,5′:1,2]pyrido[3,4-b]indol-4-ium chloride]
- pIC50 [1]: < 5.00
- IC50 [2]: > 10 µM
- pIC50 [3]: < 5.00

Structure (SMILES): Brc1ccc(-c2c3c4[nH]c5ccccc5c4cc[n+]3cn2-c2ccccc2)cc1 [8aba, 1-(4-Bromophenyl)-2-phenyl-2,11-dihydroimidazo[1′,5′:1,2]pyrido[3,4-b]indol-4-ium chloride]
- pIC50 [1]: < 5.00
- IC50 [2]: 0.0708 µM
- pIC50 [3]: < 5.00

More lines, now with the values ahead:

- pIC50 [1]: < 5.00
- IC50 [2]: > 10 µM
- pIC50 [3]: < 5.00
Structure (SMILES): Fc1ccc(-c2c3c4[nH]c5ccccc5c4cc[n+]3cn2-c2ccc(Br)cc2)cc1 [8agb, 2-(4-Bromophenyl)-1-(4-fluorophenyl)-2,11-dihydroimidazo[1′,5′:1,2]pyrido[3,4-b]indol-4-ium chloride]

- pIC50 [1]: < 5.00
- IC50 [2]: > 10 µM
- pIC50 [3]: < 5.00
Structure (SMILES): COC(=O)c1cc2c3ccccc3[nH]c2c2c(-c3ccc(Br)cc3)n(-c3ccc(F)cc3)c[n+]12 [8bbd, 1-(4-Bromophenyl)-2-(4-fluorophenyl)-5-(methoxycarbonyl)-2,11-dihydroimidazo[1′,5′:1,2]pyrido[3,4-b]indol-4-iumchloride]

- pIC50 [1]: < 5.00
- IC50 [2]: > 10 µM
- pIC50 [3]: < 5.00
Structure (SMILES): COc1cc(-c2c3c4[nH]c5ccccc5c4cc[n+]3cn2-c2ccc(F)cc2)cc(OC)c1OC [8apd, 2-(4-Fluorophenyl)-1-(3,4,5-trimethoxyphenyl)-2,11-dihydroimidazo[1′,5′:1,2]pyrido[3,4-b]indol-4-ium chloride]

- pIC50 [1]: < 5.00
- IC50 [2]: 0.209 µM
- pIC50 [3]: < 5.00
Structure (SMILES): Fc1ccc(-n2c[n+]3ccc4c5ccccc5[nH]c4c3c2-c2cccs2)cc1 [8and, 2-(4-Fluorophenyl)-1-(thiophen-2-yl)-2,11-dihydroimidazo[1′,5′:1,2]pyrido[3,4-b]indol-4-ium chloride]

- pIC50 [1]: < 5.00
- IC50 [2]: > 10 µM
- pIC50 [3]: < 5.00
Structure (SMILES): COc1ccc(-n2c[n+]3ccc4c5ccccc5[nH]c4c3c2-c2ccc(Br)cc2)cc1 [8abg, 1-(4-Bromophenyl)-2-(4-methoxyphenyl)-2,11-dihydrolmidazo[1′,5′:1,2]pyrido[3,4-b]indol-4-ium chloride]

- pIC50 [1]: < 5.00
- IC50 [2]: > 10 µM
- pIC50 [3]: < 5.00
Structure (SMILES): Fc1ccc(-c2c3c4[nH]c5ccccc5c4cc[n+]3cn2-c2cccc(Br)c2)cc1 [8age, 2-(3-Bromophenyl)-1-(4-fluorophenyl)-2,11-dihydroimidazo[1′,5′:1,2]pyrido[3,4-b]indol-4-ium chloride]

- pIC50 [1]: < 5.00
- IC50 [2]: > 10 µM
- pIC50 [3]: < 5.00
Structure (SMILES): Fc1ccc(-c2c3c4[nH]c5ccccc5c4cc[n+]3cn2-c2ccc(Cl)cc2)cc1 [8agc, 2-(4-Chlorophenyl)-1-(4-fluorophenyl)-2,11-dihydrolmidazo[1′,5′:1,2]pyrido[3,4-b]indol-4-ium chloride]

- pIC50 [1]: < 5.00
- IC50 [2]: > 10 µM
- pIC50 [3]: < 5.00
Structure (SMILES): Fc1ccc(-c2c3c4[nH]c5ccccc5c4cc[n+]3cn2-c2cccc(Cl)c2)cc1 [8agf, 2-(3-Chlorophenyl)-1-(4-fluorophenyl)-2,11-dihydroimidazo[1′,5′:1,2]pyrido[3,4-b]indol-4-ium chloride]

- pIC50 [1]: < 5.00
- IC50 [2]: > 10 µM
- pIC50 [3]: < 5.00
Structure (SMILES): Fc1ccc(-n2c[n+]3c4ccccc4c4c5ccccc5[nH]c4c3c2-c2ccc(Br)cc2)cc1 [12cc, 1-4-Bromphenyl)-2-(4-fluorophenyl)-2,13-dihydroimidazo[1,5-a]indolo[2,3-c]quinolin-4-ium chloride]

- pIC50 [1]: < 5.00
- IC50 [2]: 3.16 µM
- pIC50 [3]: < 5.00
Structure (SMILES): COC(=O)c1cc2c3ccccc3[nH]c2c2c(C)n(-c3ccc(F)cc3)c[n+]12 [8bpd, 2-(4-Fluorophenyl)-5-(methoxycarbonyl)-1-methyl-2,11-dihydroimidazo[1′,5′:1,2]pyrido[3,4-b]indol-4-ium chloride]

- pIC50 [1]: < 5.00
- IC50 [2]: > 10 µM
- pIC50 [3]: < 5.00
Structure (SMILES): Fc1ccc(-n2c[n+]3ccc4c5ccccc5[nH]c4c3c2-c2ccc(Br)cc2)cc1F [8abm, 1-(4-Bromophenyl)-2-(3,4-difluorophenyl)-2,11-dihydroimidazo[1′,5′:1,2]pyrido[3,4-b]indol-4-ium chloride]

- pIC50 [1]: < 5.00
- IC50 [2]: > 10 µM
- pIC50 [3]: < 5.00
Structure (SMILES): Cc1ccc(-c2c3c4[nH]c5ccccc5c4c4ccccc4[n+]3cn2-c2ccc(F)cc2)cc1 [12bc, 2-(4-Fluorophenyl)-1-(p-tolyl)-2,13-dihydrolmidazo[1,5-a]indolo[2,3-c]quinolin-4-ium chloride]

- pIC50 [1]: < 5.00
- IC50 [2]: 0.0912 µM
- pIC50 [3]: < 5.00
Structure (SMILES): Fc1cccc(-c2c3c4[nH]c5ccccc5c4cc[n+]3cn2-c2ccc(Cl)cc2)c1 [8aic, 2-(4-Chlorophenyl)-1-(3-fluorophenyl)-2,11-dihydrolmidazo[1′,5′:1,2]pyrido[3,4-b]indol-4-ium chloride]

- pIC50 [1]: < 5.00
- IC50 [2]: > 10 µM
- pIC50 [3]: < 5.00
Structure (SMILES): Fc1ccc(-c2c3c4[nH]c5ccccc5c4cc[n+]3cn2-c2ccc(F)cc2)cc1 [8agd, 1,2-Bis(4-fluorophenyl)-2,11-dihydroimidazo[1′,5′:1,2]pyrido[3,4-b]indol-4-ium chloride]

- pIC50 [1]: < 5.00
- IC50 [2]: > 10 µM
- pIC50 [3]: < 5.00
Structure (SMILES): COC(=O)c1cc2c3ccccc3[nH]c2c2c(-c3ccc(C)cc3)n(-c3ccc(F)cc3)c[n+]12 [8bkd, 2-(4-Fluorophenyl)-5-(methoxycarbonyl)-1-(p-tolyl)-2,11-dihydroimidazo[1′,5′:1,2]pyrido[3,4-b]indol-4-iumchloride]
